Measurements as given in patent US11767332B2, “Glucose-sensitive albumin-binding derivatives” (Novo Nordisk A/S, priority 2017, dated 2023).

Legend:
[1] = Alizarin red (ARS) assay, glucose binding affinity; details: 20 mM phosphate buffer pH 7.4, room temperature
Method: (§1) The alizarin-red binding assay is a colorimetric assay used to determine the inhibition affinity of boronate compounds to glucose. The assay is based on a colour shift of alizarin-red upon binding to boronate, which shift can be followed by change in absorbance in the 330-340 nm region.
(§2) After 5 minutes of centrifugation at 4000 rpm, the plate is placed in a multi-well spectrometer (SpectraMax, Molecular Devices) for absorption detection.
(§3) The analysis is carried out at room temperature with absorption readings at 330, 340 and 520 nm, respectively. Data obtained for absorption versus concentration of boronate is then fitted (Prism 7, GraphPad) with a sigmoidal function to obtain the Kd value of boronate and ARS.
(§4) Upon complete dissolution of the compound, 200 μM of Alizarin red (ARS) is added to the solution. The ARS-boronate solution is then aliquoted into a 96 multiwell plate (black, flat and clear bottom) 1:1 with appropriate carbohydrate. In particular, D-glucose and L-lactate solutions are prepared in a 20 mM phosphate buffer pH 7.4 at these concentrations respectively: 1000, 500, 250, 100, 50, 25, 10, 5, 2.5, 1, 0.25, 0.1 mM and 2500, 1000, 500, 100, 50, 10, 5, 1, 0.5, 0.1, 0.05, 0.01 mM. The plate with ARS-boronate mixed with carbohydrate is incubated 20 minutes at room temperature. After 5 minutes of centrifugation at 4000 rpm the plate is placed in a multiwell spectrometer (Spectra Max, Molecular Devices) for absorption detection.
(§5) The analysis is carried out at room temperature with absorption readings at 330, 340 and 520 nm, respectively.

[2] = Alizarin red (ARS) assay, lactate binding affinity; details: 20 mM phosphate buffer pH 7.4, room temperature, N.D. = not detectable
Method: as §1, §2, §3, §4, §5

| SMILES | Kd [1] [mM] | Kd [2] [mM] |
| --- | --- | --- |
| O=C(O)c1cc(CNC(=O)c2ccc(B(O)O)cc2F)cc(CNC(=O)c2ccc(B(O)O)cc2F)c1 [Example 1, 3,5-Bis((4-borono-2-fluorobenzamido)methyl)benzoic acid] | 3.1 | 8.6 |
| O=C(O)c1cc(CNC(=O)c2ccc(B(O)O)c(F)c2)cc(CNC(=O)c2ccc(B(O)O)c(F)c2)c1 [Example 2, 3,5-Bis((4-borono-3-fluorobenzamido)methyl)benzoic acid] | 3.4 | 5.4 |
| O=C(NCC[C@H](NC(=O)c1ccc(B(O)O)c(F)c1)C(=O)O)c1ccc(B(O)O)c(F)c1 [Example 4, (S)-2,4-bis(4-borono-3-fluorobenzamido)butanoic acid] | 2.6 | 6.5 |
| O=C(O)CN(CCNC(=O)c1cc2c(cc1F)COB2O)C(=O)c1cc2c(cc1F)COB2O [Example 7, N-(5-Fluoro-1-hydroxy-1,3-dihydrobenzo[c][1,2]oxaborole-6-carbonyl)-N-(2-(5-fluoro-1-hydroxy-1,3-dihydrobenzo[c][1,2]oxaborole-6-carboxamido)ethyl)glycine] | 1.5 | 24.1 |
| O=C(O)CN(CCNC(=O)c1cc(F)c2c(c1)B(O)OC2)C(=O)c1cc(F)c2c(c1)B(O)OC2 [Example 8, N-(4-Fluoro-1-hydroxy-1,3-dihydrobenzo[c][1,2]oxaborole-6-carbonyl)-N-(2-(4-fluoro-1-hydroxy-1,3-dihydrobenzo[c][1,2]oxaborole-6-carboxamido)ethyl)glycine] | 2.7 | 34 |
| O=C(O)CN(CCNC(=O)c1cc2c(cc1F)B(O)OC2)C(=O)c1cc2c(cc1F)B(O)OC2 [Example 9, N-(6-Fluoro-1-hydroxy-1,3-dihydrobenzo[c][1,2]oxaborole-5-carbonyl)-N-(2-(6-fluoro-1-hydroxy-1,3-dihydrobenzo[c][1,2]oxaborole-5-carboxamido)ethyl)glycine] | 2.6 | 67.9 |
| O=C(NCCCC[C@H](NC(=O)c1cc2c(cc1F)B(O)OC2)C(=O)O)c1cc2c(cc1F)B(O)OC2 [Example 10, N^2,N^6-Bis(6-fluoro-1-hydroxy-1,3-dihydrobenzo[c][1,2]oxaborole-5-carbonyl)-L-lysine] | 3.2 | – |
| O=C(O)c1cc(B(O)O)c(F)c(S(=O)(=O)c2ccc(F)c(B(O)O)c2)c1 [Example 11, 3-Borono-5-((3-borono-4-fluorophenyl)sulfonyl)-4-fluorobenzoic acid] | 1.8 | 17 |
| O=C(NCCCC[C@H](NC(=O)c1cc2c(cc1F)B(O)OC2)C(=O)O)c1ccc(B(O)O)cc1F [Example 14, N^6-(4-Borono-2-fluorobenzoyl)-N^2-(6-fluoro-1-hydroxy-1,3-dihydrobenzo[c][1,2]oxaborole-5-carbonyl)-L-lysine] | 3.2 | 16 |
| O=C(NC[C@H](NC(=O)c1cc2c(cc1F)COB2O)C(=O)O)c1cc2c(cc1F)COB2O [Example 16, (S)-2,3-Bis(5-fluoro-1-hydroxy-1,3-dihydrobenzo[c][1,2]oxaborole-6-carboxamido)propanoic acid] | 4.2 | 37 |
| O=C(NC[C@H](NC(=O)c1cc(F)c2c(c1)B(O)OC2)C(=O)O)c1cc(F)c2c(c1)B(O)OC2 [Example 17, (S)-2,3-Bis(4-fluoro-1-hydroxy-1,3-dihydrobenzo[c][1,2]oxaborole-6-carboxamido) propanoic acid] | 1.6 | – |
| O=C(O)CNC(=O)c1cc(B(O)O)cc(C(=O)c2cc(B(O)O)cc(C(F)(F)F)c2)c1 [Example 19, (3-Borono-5-(3-borono-5-(trifluoromethyl)benzoyl)benzoyl)glycine] | 1.5 | 17 |
| O=C(O)CCC(=O)N1C[C@H](NC(=O)c2ccc3c(c2F)B(O)OC3)[C@@H](NC(=O)c2ccc3c(c2F)B(O)OC3)C1 [Example 21, 4-((3S,4S)-3,4-Bis(7-fluoro-1-hydroxy-1,3-dihydrobenzo[c][1,2]oxaborole-6-carboxamido)pyrrolidin-1-yl)-4-oxobutanoic acid] | 2.6 | – |
| O=C(O)CCC(=O)N1C[C@@H](NC(=O)c2cc3c(c(C(F)(F)F)c2)COB3O)[C@H](NC(=O)c2cc3c(c(C(F)(F)F)c2)COB3O)C1 [Example 29, 4-[(3R,4R)-3,4-bis[[1-hydroxy-4-(trifluoromethyl)-3H-2,1-benzoxaborole-6-carbonyl]amino]pyrrolidin-1-yl]-4-oxobutanoic acid] | 2.3 | – |
| O=C(O)CN=S(=O)(c1cc2c(c(C(F)(F)F)c1)COB2O)c1cc2c(c(C(F)(F)F)c1)COB2O [Example 38, 2-((Bis(1-hydroxy-4-(trifluoromethyl)-1,3-dihydrobenzo[c][1,2]oxaborol-6-yl)(oxo)-λ6-sulfanylidene)amino)acetic acid] | 3.7 | – |
| O=C(NC[C@H](NC(=O)c1ccc2c(c1)B(O)OC2)C(=O)O)c1ccc2c(c1)B(O)OC2 [Example 40, (S)-2,3-Bis(1-hydroxy-1,3-dihydrobenzo[c][1,2]oxaborole-6-carboxamido)propanoic acid] | 2 | – |

Stronger by Kd [1], values ahead:

| Kd [1] [mM] | Kd [2] [mM] | SMILES |
| --- | --- | --- |
| 0.8 | 40 | O=C(O)CN(CCNC(=O)c1ccc2c(c1F)B(O)OC2)C(=O)c1ccc2c(c1F)B(O)OC2 [Example 5, N-(7-Fluoro-1-hydroxy-1,3-dihydrobenzo[c][1,2]oxaborole-6-carbonyl)-N-(2-(7-fluoro-1-hydroxy-1,3-dihydrobenzo[c][1,2]oxaborole-6-carboxamido)ethyl)glycine] |
| 1.1 | – | O=C(O)c1cc(CNC(=O)c2ccc3c(c2F)B(O)OC3)cc(CNC(=O)c2ccc3c(c2F)B(O)OC3)c1 [Example 6, 3,5-Bis((7-fluoro-1-hydroxy-1,3-dihydrobenzo[c][1,2]oxaborole-6-carboxamido)methyl) benzoic acid] |
| 1.1 | 18 | O=C(O)c1cc(B(O)O)cc(C(=O)c2cc(F)cc(B(O)O)c2)c1 [Example 12, 3-Borono-5-(3-borono-5-fluorobenzoyl)benzoic acid] |
| 0.3 | 4 | O=C(O)c1cc(B(O)O)cc(C(=O)c2cc(B(O)O)c(F)cc2F)c1 [Example 13, 3-Borono-5-(5-borono-2,4-difluorobenzoyl)benzoic acid] |
| 0.5 | 10 | O=C(NC[C@H](NC(=O)c1ccc2c(c1F)B(O)OC2)C(=O)O)c1ccc2c(c1F)B(O)OC2 [Example 15, (S)-2,3-Bis(7-fluoro-1-hydroxy-1,3-dihydrobenzo[c][1,2]oxaborole-6-carboxamido)propanoic acid] |
| 0.4 | 13 | O=C(O)CNC(=O)c1cc(B(O)O)cc(C(F)(F)c2cc(B(O)O)cc(C(F)(F)F)c2)c1 [Example 18, (3-Borono-5-((3-borono-5-(trifluoromethyl)phenyl)difluoromethyl)benzoyl)glycine] |
| 0.3 | – | O=C(O)CNC(=O)c1cc(B(O)O)cc(S(=O)(=O)c2cc(B(O)O)cc(S(F)(F)(F)(F)F)c2)c1 [Example 28, (3-Borono-5-((3-borono-5-(pentafluoro-λ^6-sulfanyl)phenyl)sulfonyl)benzoyl)glycine] |
| 1.1 | – | O=C(O)CN(CCNC(=O)c1cc2c(c(S(=O)(=O)C(F)(F)F)c1)COB2O)C(=O)c1cc2c(c(S(=O)(=O)C(F)(F)F)c1)COB2O [Example 42, N-(1-Hydroxy-4-((trifluoromethyl)sulfonyl)-1,3-dihydrobenzo[c][1,2]oxaborole-6-carbonyl)-N-(2-(1-hydroxy-4-((trifluoromethyl)sulfonyl)-1,3-dihydrobenzo-[c][1,2]oxaborole-6-carboxamido)ethyl)glycine] |
